The values below come from patent US11040028B2, “Penicinotam derivative, preparation method and use thereof” (OCEAN UNIVERSITY OF CHINA, priority 2017, dated 2021).

What all share (type): cell-based
Assay [1] relates to human dermal fibroblasts CCC-ESF-1. Nature of the assay: Anti-fibrosis activity test: inhibition of proliferation of human dermal fibroblasts CCC-ESF-1 (CCK-8). To be noted: Homo sapiens, Fibroblast; CCC-ESF-1 cells, 48 h, CCK-8. Summed up: (§1)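 Seed 2×10^4 cells/mL; adhere 24 h, 37° C/5% CO2. Compounds, serial concentrations, triplicate, 48 h. CCK-8 2 h, A450. IR=(1−Ai/Ao)×100% vs blank; IC50 fitted. Pirfenidone as positive control.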

Assay [2] has as its system human lung fibroblasts HFL1. Nature of the assay: Anti-fibrosis activity test: inhibition of proliferation of human lung fibroblasts HFL1 (CCK-8). The following applies: Homo sapiens, HFL1, 48 h, HFL1 cells, 48 h, CCK-8. Summed up: as §1
In a further assay the test system is BHK-21 cells. Nature of the assay: Anti-fibrosis activity test: inhibition of BHK-21 cell proliferation (CCK-8). To be noted: Mesocricetus auratus, BHK-21, 48 h, 48 h, CCK-8. Summed up: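 Each concentration was tested in triplicate on adhered BHK-21 cells for 48 h, with pirfenidone as reference. A 2 h CCK-8 incubation preceded absorbance reading at 450 nm, and IC50 was obtained from percent inhibition versus blank.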

Assay [3] relates to human embryonic lung fibroblast IMR-90. Nature of the assay: Anti-fibrosis activity test: inhibition of proliferation of human embryonic lung fibroblast IMR-90 (CCK-8). To be noted: Homo sapiens; IMR-90 cells, 48 h, CCK-8. Summed up: as §1
Assay [4] has as its system human hepatic stellate cells LX-2. Nature of the assay: Anti-fibrosis activity test: inhibition of proliferation of human hepatic stellate cells LX-2 (CCK-8). To be noted: Homo sapiens, LX-2, 48 h, LX-2 cells, 48 h, CCK-8. Summed up: as §1
In assay [5] the test system is cardiac fibroblast RAT-iCell-C002. Nature of the assay: Anti-fibrosis activity test: inhibition of proliferation of cardiac fibroblast RAT-iCell-C002 (CCK-8). To be noted: Cardiac fibroblast, 48 h, RAT-iCell-C002 cells, CCK-8. Summed up: as §1
Assay [6] has as its system mouse macrophages (RAW264.7). Nature of the assay: Lipopolysaccharide-induced NO secretion in macrophages (Griess). To be noted: Mus musculus, RAW264.7, 24 h, RAW264.7, LPS 1 μg/ml, a/b isomers given as first/second symbol, read-out: IC50 (μM), inhibition of lipopolysaccharide-induced NO secretion in macrophages. Summed up:
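LPS 1 μg/ml, 24 h, RAW264.7 (DMEM/10% FBS); cpds at varied concs. Supernatant NO by Griess, A548; % inhibition vs blank medium.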

Assay [7] deals with human fibrosarcoma cells HT-1080. Nature of the assay: Anti-fibrosis activity test: inhibition of proliferation of human fibrosarcoma cells HT-1080 (CCK-8). To be noted: Homo sapiens, HT-1080, 48 h, HT-1080 cells, 48 h, CCK-8. Summed up:
as §1

Bounds are passed on as bounds.

What is called IC50 is the concentration at which inhibition is half-maximal.

`O=C1c2nc3ccccc3c(OCCCCN3CCCCC3)c2-c2cccn21` [Compound 788b, 11-(4-(piperidin-1-yl)butoxy)-5H-pyrrolizino[2,1-b]quinolin-5-one]: the half-maximal inhibitory concentration (IC50) (in assay [1]; in assay [2]; in the assay on BHK-21 cells; in assay [3]; in assay [4]; in assay [5]) was 0.05 to 5 mM each time. In addition, the values for the half-maximal inhibitory concentration (IC50) in assay [6] and in assay [7] were 1 to 10 µM and 0.05 to 5 mM, respectively.
As to `O=C1c2c(c(=O)c3ccccc3n2CCCCN2CCOCC2)-c2cccn21` [Compound 789a, 6-(4-Morpholinobutyl)-5H-pyrrolizino[2,1-b]quinoline-5,11(6H)-dione], the IC50 (in assay [1]; in assay [2]; in the assay on BHK-21 cells; in assay [3]; in assay [4]; in assay [5]) was 0.05 to 5 mM in each case. Besides, the IC50 was in the range of 1 to 10 µM in assay [6] and 0.05 to 5 mM in assay [7].
`O=C1c2nc3ccccc3c(OCCCCN3CCOCC3)c2-c2cccn21` [Compound 789b, 11-(4-morpholinobutoxy)-5H-pyrrolizino[2,1-b]quinolin-5-one]: the IC50 (in assay [1]; in assay [2]; in the assay on BHK-21 cells; in assay [3]; in assay [4]; in assay [5]) was 0.05 to 5 mM in each case. Also, the figures for the IC50 in assay [6] and in assay [7] were 1 to 10 µM and 0.05 to 5 mM, respectively.
In the case of `CCCOCCn1c2c(c(=O)c3ccccc31)-c1cccn1C2=O` [Compound 790a, 6-(2-Propoxyethyl)-5H-pyrrolizino[2,1-b]quinoline-5,11(6H)-dione], the half-inhibitory concentration (IC50) (in assay [1]; in assay [2]; with BHK-21 cells; in assay [3]; in assay [4]; in assay [5]) was 0.05 to 5 mM each time. In addition, the values for the IC50 in assay [6] and in assay [7] were 1 to 10 µM and 0.05 to 5 mM, respectively.
Turning to `CCCOCCOc1c2c(nc3ccccc13)C(=O)n1cccc1-2` [Compound 790b, 11-(2-propoxyethoxy)-5H-pyrrolizino[2,1-b]quinolin-5-one], the IC50 (in assay [1]; in assay [2]; with BHK-21 cells; in assay [3]; in assay [4]; in assay [5]) was 0.05 to 5 mM throughout. The IC50 in assay [6] lay within 1 to 10 µM; in assay [7], 0.05 to 5 mM.
For `CCOCCCn1c2c(c(=O)c3ccccc31)-c1cccn1C2=O` [Compound 791a, 6-(3-Ethoxypropyl)-5H-pyrrolizino[2,1-b]quinoline-5,11(6H)-dione], the half-inhibitory concentration (IC50) was 0.05 to 5 mM in assay [1]; 0.05 to 5 mM in assay [2]; less than 0.05 mM with BHK-21 cells; 0.05 to 5 mM in assay [3]; 0.05 to 5 mM in assay [4]; 0.05 to 5 mM in assay [5]. The IC50 in assay [6] was in the range of 1 to 10 µM; in assay [7], 0.05 to 5 mM.
Consider `CCOCCCOc1c2c(nc3ccccc13)C(=O)n1cccc1-2` [Compound 791b, 11-(3-ethoxypropoxy)-5H-pyrrolizino[2,1-b]quinolin-5-one], for which the 50% inhibitory concentration (IC50) (in assay [1]; in assay [2]; in the assay on BHK-21 cells; in assay [3]; in assay [4]; in assay [5]) was 0.05 to 5 mM throughout. The values for the concentration for half-maximal inhibition (IC50) in assay [6] and in assay [7] were 1 to 10 µM and 0.05 to 5 mM, respectively.
As to `O=C1c2c(c(=O)c3ccccc3n2CCN2CCNCC2)-c2cccn21` [Compound 792a, 6-(2-(Piperazin-1-yl)ethyl)-5H-pyrrolizino[2,1-b]quinoline-5,11(6H)-dione], the half-inhibitory concentration (IC50) in assay [1] is less than 0.05 mM; in assay [2], 0.05 to 5 mM; in the assay with BHK-21 cells, 0.05 to 5 mM; in assay [3], 0.05 to 5 mM; in assay [4] it was 0.05 to 5 mM; in assay [5], 0.05 to 5 mM. The IC50 is 0.1 to 1 µM in assay [6] and 0.05 to 5 mM in assay [7].
On to `O=C1c2nc3ccccc3c(OCCN3CCNCC3)c2-c2cccn21` [Compound 792b, 11-(2-(piperazin-1-yl)ethoxy)-5H-pyrrolizino[2,1-b]quinolin-5-one], for which the IC50 in assay [1] was less than 0.05 mM; in assay [2], 0.05 to 5 mM; with BHK-21 cells, 0.05 to 5 mM; in assay [3], 0.05 to 5 mM; in assay [4], 0.05 to 5 mM; in assay [5], 0.05 to 5 mM. For the same molecule, the half-inhibitory concentration (IC50) in assay [6] is 0.1 to 1 µM; in assay [7], 0.05 to 5 mM.
With `O=C1c2c(c(=O)c3ccccc3n2CCCN2CCNCC2)-c2cccn21` [Compound 793a, 6-(3-(Piperazin-1-yl)propyl)-5H-pyrrolizino[2,1-b]quinoline-5,11(6H)-dione], the concentration for half-maximal inhibition (IC50) (in assay [1]; in assay [2]; in the assay with BHK-21 cells; in assay [3]; in assay [4]; in assay [5]) was 0.05 to 5 mM throughout. Besides, the values for the IC50 in assay [6] and in assay [7] were 0.1 to 1 µM and 0.05 to 5 mM, respectively.
`O=C1c2nc3ccccc3c(OCCCN3CCNCC3)c2-c2cccn21` [Compound 793b, 11-(3-(piperazin-1-yl)propoxy)-5H-pyrrolizino[2,1-b]quinolin-5-one]: the half-maximal inhibitory concentration (IC50) (in assay [1]; in assay [2]; in the assay on BHK-21 cells; in assay [3]; in assay [4]; in assay [5]) was 0.05 to 5 mM throughout. Further, the results for the IC50 in assay [6] and in assay [7] were 0.1 to 1 µM and 0.05 to 5 mM, respectively.
Take `O=C1c2c(c(=O)c3ccccc3n2CCCCN2CCNCC2)-c2cccn21` [Compound 794a, 6-(4-(Piperazin-1-yl)butyl)-5H-pyrrolizino[2,1-b]quinoline-5,11(6H)-dione]: the IC50 (in assay [1]; in assay [2]; in the assay with BHK-21 cells; in assay [3]; in assay [4]; in assay [5]) was 0.05 to 5 mM in each case. The half-inhibitory concentration (IC50) was in the range of 1 to 10 µM in assay [6] and 0.05 to 5 mM in assay [7].
In the case of `O=C1c2nc3ccccc3c(OCCCCN3CCNCC3)c2-c2cccn21` [Compound 794b, 11-(4-(piperazin-1-yl)butoxy)-5H-pyrrolizino[2,1-b]quinolin-5-one], the IC50 (in assay [1]; in assay [2]; in the assay with BHK-21 cells; in assay [3]; in assay [4]; in assay [5]) was 0.05 to 5 mM each time. Moreover, the concentration for half-maximal inhibition (IC50) in assay [6] fell in the range of 1 to 10 µM; in assay [7], 0.05 to 5 mM.
Turning to `N#Cc1ccccc1-c1ccc(Cn2c3c(c(=O)c4ccccc42)-c2cccn2C3=O)cc1` [Compound 795a, 4′-((5,11-Dioxo-5,11-dihydro-6H-pyrrolizino[2,1-b]quinolin-6-yl)methyl)-[1,1′-biphenyl]-2-carbonitrile], the half-maximal inhibitory concentration (IC50) (in assay [1]; in assay [2]; in the assay on BHK-21 cells; in assay [3]; in assay [4]; in assay [5]) was 0.05 to 5 mM in each case. Also, the half-inhibitory concentration (IC50) in assay [6] fell in the range of 1 to 10 µM; in assay [7] it was 0.05 to 5 mM.
On to `N#Cc1ccccc1-c1ccc(COc2c3c(nc4ccccc24)C(=O)n2cccc2-3)cc1` [Compound 795b, 4′-(((5-oxo-5H-pyrrolizino[2,1-b]quinolin-11-yl)oxy)methyl)-[1,1′-biphenyl]-2-carbonitrile], for which the half-inhibitory concentration (IC50) (in assay [1]; in assay [2]; in the assay on BHK-21 cells; in assay [3]; in assay [4]; in assay [5]) was 0.05 to 5 mM throughout. Further, the concentration for half-maximal inhibition (IC50) in assay [6] lay in the range of 1 to 10 µM; in assay [7], 0.05 to 5 mM.
Turning to `O=C1c2c(c(=O)c3ccccc3n2Cc2ccc(-c3ccccc3)cc2)-c2cccn21` [Compound 796a, 6-([1,1′-Biphenyl]-4-ylmethyl)-5H-pyrrolizino[2,1-b]quinoline-5,11(6H)-dione], the IC50 (in assay [1]; in assay [2]; with BHK-21 cells; in assay [3]; in assay [4]; in assay [5]) was 0.05 to 5 mM in each case. The concentration for half-maximal inhibition (IC50) in assay [6] was in the range of 1 to 10 µM; in assay [7], 0.05 to 5 mM.
In the case of `O=C1c2nc3ccccc3c(OCc3ccc(-c4ccccc4)cc3)c2-c2cccn21` [Compound 796b, 11-([1,1′-biphenyl]-4-ylmethoxy)-5H-pyrrolizino[2,1-b]quinolin-5-one], the IC50 (in assay [1]; in assay [2]; with BHK-21 cells; in assay [3]; in assay [4]; in assay [5]) was 0.05 to 5 mM throughout. Moreover, the 50% inhibitory concentration (IC50) in assay [6] lay within 1 to 10 µM; in assay [7], 0.05 to 5 mM.
